In PMC9632963, “Preclinical characterization and phase I clinical trial of CT053PTSA targets MET, AXL, and VEGFR2 in patients with advanced solid tumors” (Frontiers in Immunology, 2022):

System: patients with advanced solid tumors
Test: Phase I trial: safety, tolerability, DLT, MTD (CTCAE v4.0)
Type: in vivo
From the text: Eligible patients had at least one measurable lesion per RECIST v 1.1, Eastern Cooperative Oncology Group (ECOG) performance status of 0 or 1, and adequate hematological, renal, cardiac and hepatic functions. The primary objectives were to assess safety and tolerability as well as to determine the MTD, DLT, and dose recommended for further study. The secondary objectives were to assess the PK and preliminary efficacy of CT053PTSA.
An initial accelerated titration design was used in the 15 and 30 mg QD cohorts, and the “3+3” schema was used starting in the 60 mg QD cohort. […] The study protocol was approved by an institutional review board at Sun Yat-sen University Cancer Center. Written informed consent was obtained from all the patients before enrollment.
Descriptive statistics of safety are presented per CTCAE v4.0. Subjects who received at least one dose of CT053PTSA were considered eligible to be evaluated and included in safety analyses. […] According to the RECIST 1.1 criteria, imaging examinations were performed at each specified time point in the protocol. The antitumor activity was measured by RECIST1.1.

Cc1c(C(=O)Nc2ccc(Oc3ccnc4cc(OCC(C)(C)O)ccc34)c(F)c2)c(=O)n(-c2ccccc2)n1C [CT053PTSA]
4 (80) n (%): transaminase elevation, All (150mg (n = 5))
6 (85.7) n (%): transaminase elevation, All (100mg (n = 7))
15%: patients with grade 3 TRAEs (all patients n = 20)
3 (15) n (%): Electrocardiogram QT prolonged, All (All (n = 20))
9 (45) n (%): leukopenia, All (All (n = 20))
65%: TRAE any grade: transaminase elevation (all patients n = 20)
2 (10) n (%): Diarrhea, All (All (n = 20)) | Hyponatremia, All (All (n = 20)) | Nausea, All (All (n = 20)) | Platelet count decreased, ≥ G3 (All (n = 20)) | Stomatitis, All (All (n = 20))
0 n (%): Blood sodium decreased, ≥ G3 (100mg (n = 7)) | Blood uric acid increased, All (100mg (n = 7)) | Blood uric acid increased, ≥ G3 (100mg (n = 7)) | Decreased appetite, ≥ G3 (100mg (n = 7)) | Diarrhea, ≥ G3 (100mg (n = 7)) | Dizziness, ≥ G3 (100mg (n = 7)) | Dry mouth, ≥ G3 (100mg (n = 7)) | Electrocardiogram QT prolonged, ≥ G3 (100mg (n = 7)) | Electrolyte imbalance, All (100mg (n = 7)) | Electrolyte imbalance, ≥ G3 (100mg (n = 7)) | Hemoglobin decreased, All (100mg (n = 7)) | Hemoglobin decreased, ≥ G3 (100mg (n = 7)) | Hypertension, ≥ G3 (100mg (n = 7)) | Hyponatremia, ≥ G3 (100mg (n = 7)) | Hypoparathyroidism, All (100mg (n = 7)) | Hypoparathyroidism, ≥ G3 (100mg (n = 7)) | Mouth ulceration, All (100mg (n = 7)) | Mouth ulceration, ≥ G3 (100mg (n = 7)) | Nausea, ≥ G3 (100mg (n = 7)) | Oropharyngeal pain, ≥ G3 (100mg (n = 7)) | Pain, ≥ G3 (100mg (n = 7)) | Palmar-plantar erythrodysaesthesia syndrome, ≥ G3 (100mg (n = 7)) | Proteinuria, ≥ G3 (100mg (n = 7)) | Pyrexia, All (100mg (n = 7)) | Pyrexia, ≥ G3 (100mg (n = 7)) | Sinus bradycardia, All (100mg (n = 7)) | Sinus bradycardia, ≥ G3 (100mg (n = 7)) | Stomatitis, ≥ G3 (100mg (n = 7)) | Vomiting, All (100mg (n = 7)) | Vomiting, ≥ G3 (100mg (n = 7)) | leukopenia, ≥ G3 (100mg (n = 7)) | neutropenia, ≥ G3 (100mg (n = 7)) | Anaemia, All (150mg (n = 5)) | Anaemia, ≥ G3 (150mg (n = 5)) | Blood chloride decreased, All (150mg (n = 5)) | Blood chloride decreased, ≥ G3 (150mg (n = 5)) | Blood creatinine increased, ≥ G3 (150mg (n = 5)) | Blood potassium decreased, ≥ G3 (150mg (n = 5)) | Blood uric acid increased, ≥ G3 (150mg (n = 5)) | Diarrhea, ≥ G3 (150mg (n = 5)) | Dizziness, All (150mg (n = 5)) | Dizziness, ≥ G3 (150mg (n = 5)) | Dry mouth, All (150mg (n = 5)) | Dry mouth, ≥ G3 (150mg (n = 5)) | Electrocardiogram QT prolonged, ≥ G3 (150mg (n = 5)) | Electrolyte imbalance, ≥ G3 (150mg (n = 5)) | Hemoglobin decreased, ≥ G3 (150mg (n = 5)) | Hyponatremia, All (150mg (n = 5)) | Hyponatremia, ≥ G3 (150mg (n = 5)) | Hypoparathyroidism, ≥ G3 (150mg (n = 5)) | Mouth ulceration, ≥ G3 (150mg (n = 5)) | Nausea, ≥ G3 (150mg (n = 5)) | Oropharyngeal pain, All (150mg (n = 5)) | Oropharyngeal pain, ≥ G3 (150mg (n = 5)) | Pain, All (150mg (n = 5)) | Pain, ≥ G3 (150mg (n = 5)) | Palmar-plantar erythrodysaesthesia syndrome, All (150mg (n = 5)) | Palmar-plantar erythrodysaesthesia syndrome, ≥ G3 (150mg (n = 5)) | Proteinuria, All (150mg (n = 5)) | Proteinuria, ≥ G3 (150mg (n = 5)) | Pyrexia, ≥ G3 (150mg (n = 5)) | Sinus bradycardia, ≥ G3 (150mg (n = 5)) | Vomiting, ≥ G3 (150mg (n = 5)) | neutropenia, ≥ G3 (150mg (n = 5)) | transaminase elevation, ≥ G3 (150mg (n = 5)) | Anaemia, ≥ G3 (All (n = 20)) | Blood chloride decreased, ≥ G3 (All (n = 20)) | Blood creatinine increased, ≥ G3 (All (n = 20)) | Blood potassium decreased, ≥ G3 (All (n = 20)) | Blood uric acid increased, ≥ G3 (All (n = 20)) | Diarrhea, ≥ G3 (All (n = 20)) | Dizziness, ≥ G3 (All (n = 20)) | Dry mouth, ≥ G3 (All (n = 20)) | Electrocardiogram QT prolonged, ≥ G3 (All (n = 20)) | Electrolyte imbalance, ≥ G3 (All (n = 20)) | Hemoglobin decreased, ≥ G3 (All (n = 20)) | Hyponatremia, ≥ G3 (All (n = 20)) | Hypoparathyroidism, ≥ G3 (All (n = 20)) | Mouth ulceration, ≥ G3 (All (n = 20)) | Nausea, ≥ G3 (All (n = 20)) | Oropharyngeal pain, ≥ G3 (All (n = 20)) | Pain, ≥ G3 (All (n = 20)) | Palmar-plantar erythrodysaesthesia syndrome, ≥ G3 (All (n = 20)) | Proteinuria, ≥ G3 (All (n = 20)) | Pyrexia, ≥ G3 (All (n = 20)) | Sinus bradycardia, ≥ G3 (All (n = 20)) | Vomiting, ≥ G3 (All (n = 20)) | neutropenia, ≥ G3 (All (n = 20))
2 (28.6) n (%): Decreased appetite, All (100mg (n = 7)) | Hypertension, All (100mg (n = 7))
30%: TRAE any grade: decreased appetite (all patients n = 20) | TRAE any grade: decreased platelet count (all patients n = 20)
4 (57.1) n (%): Platelet count decreased, All (100mg (n = 7)) | leukopenia, All (100mg (n = 7)) | neutropenia, All (100mg (n = 7))
80%: patients with treatment-related adverse events (TRAEs) (all patients n = 20)
45%: TRAE any grade: leukopenia (all patients n = 20)
2 (40) n (%): Hypertension, All (150mg (n = 5)) | neutropenia, All (150mg (n = 5))
1 (5) n (%): Anaemia, All (All (n = 20)) | Blood chloride decreased, All (All (n = 20)) | Blood creatinine increased, All (All (n = 20)) | Blood potassium decreased, All (All (n = 20)) | Blood sodium decreased, All (All (n = 20)) | Blood sodium decreased, ≥ G3 (All (n = 20)) | Blood uric acid increased, All (All (n = 20)) | Decreased appetite, ≥ G3 (All (n = 20)) | Dizziness, All (All (n = 20)) | Dry mouth, All (All (n = 20)) | Electrolyte imbalance, All (All (n = 20)) | Hemoglobin decreased, All (All (n = 20)) | Hypertension, ≥ G3 (All (n = 20)) | Hypoparathyroidism, All (All (n = 20)) | Mouth ulceration, All (All (n = 20)) | Oropharyngeal pain, All (All (n = 20)) | Pain, All (All (n = 20)) | Palmar-plantar erythrodysaesthesia syndrome, All (All (n = 20)) | Proteinuria, All (All (n = 20)) | Pyrexia, All (All (n = 20)) | Sinus bradycardia, All (All (n = 20)) | Stomatitis, ≥ G3 (All (n = 20)) | Vomiting, All (All (n = 20)) | leukopenia, ≥ G3 (All (n = 20)) | transaminase elevation, ≥ G3 (All (n = 20))
6 (30) n (%): Decreased appetite, All (All (n = 20)) | Platelet count decreased, All (All (n = 20))
2/4 and Two of four: patients with DLT / patients eligible for DLT assessment (150 mg QD)
35%: TRAE any grade: neutropenia (all patients n = 20)
20%: TRAE any grade: hypertension (all patients n = 20)
5%: grade 3 TRAE: decreased appetite (all patients n = 20) | grade 3 TRAE: decreased blood sodium (all patients n = 20) | grade 3 TRAE: elevated transaminase (all patients n = 20) | grade 3 TRAE: hypertension (all patients n = 20) | grade 3 TRAE: leukopenia (all patients n = 20) | grade 3 TRAE: stomatitis (all patients n = 20)
1 (14.3) n (%): Diarrhea, All (100mg (n = 7)) | Dizziness, All (100mg (n = 7)) | Dry mouth, All (100mg (n = 7)) | Electrocardiogram QT prolonged, All (100mg (n = 7)) | Hyponatremia, All (100mg (n = 7)) | Nausea, All (100mg (n = 7)) | Oropharyngeal pain, All (100mg (n = 7)) | Pain, All (100mg (n = 7)) | Palmar-plantar erythrodysaesthesia syndrome, All (100mg (n = 7)) | Platelet count decreased, ≥ G3 (100mg (n = 7)) | Proteinuria, All (100mg (n = 7)) | Stomatitis, All (100mg (n = 7)) | transaminase elevation, ≥ G3 (100mg (n = 7))
60~100 mg QD: recommended dose for further study (in vivo)
100 mg: MTD (oral QD)
10%: grade 3 TRAE: decreased platelet count (all patients n = 20)
1/6 and one out of six: patients with DLT / patients eligible for DLT assessment (100 mg QD)
4 (20) n (%): Hypertension, All (All (n = 20))
95%: patients with at least one adverse event (AE) (all patients n = 20)
3 (60) n (%): Decreased appetite, All (150mg (n = 5)) | leukopenia, All (150mg (n = 5))
1 (20) n (%): Blood creatinine increased, All (150mg (n = 5)) | Blood potassium decreased, All (150mg (n = 5)) | Blood sodium decreased, All (150mg (n = 5)) | Blood sodium decreased, ≥ G3 (150mg (n = 5)) | Blood uric acid increased, All (150mg (n = 5)) | Decreased appetite, ≥ G3 (150mg (n = 5)) | Diarrhea, All (150mg (n = 5)) | Electrocardiogram QT prolonged, All (150mg (n = 5)) | Electrolyte imbalance, All (150mg (n = 5)) | Hemoglobin decreased, All (150mg (n = 5)) | Hypertension, ≥ G3 (150mg (n = 5)) | Hypoparathyroidism, All (150mg (n = 5)) | Mouth ulceration, All (150mg (n = 5)) | Nausea, All (150mg (n = 5)) | Platelet count decreased, All (150mg (n = 5)) | Platelet count decreased, ≥ G3 (150mg (n = 5)) | Pyrexia, All (150mg (n = 5)) | Sinus bradycardia, All (150mg (n = 5)) | Stomatitis, All (150mg (n = 5)) | Stomatitis, ≥ G3 (150mg (n = 5)) | Vomiting, All (150mg (n = 5)) | leukopenia, ≥ G3 (150mg (n = 5))
7 (35) n (%): neutropenia, All (All (n = 20))
